Data reported in PMC7099768, “A positron emission tomography imaging study to confirm target engagement in the lungs of patients with idiopathic pulmonary fibrosis following a single dose of a novel inhaled αvβ6 integrin inhibitor” (Respiratory Research, 2020).

Assays:
[1] = single doses up to 3000 mcg; cited from earlier work

Structure (SMILES): Cc1cc(C)n(-c2cccc([C@H](CC(=O)O)CN3CC[C@@H](CCc4ccc5c(n4)NCCC5)C3)c2)n1 [GSK3008348, (S)-3-(3-(3,5-Dimethyl-1 H-pyrazol-1-yl)phenyl)-4-((R)-3-(2-(5,6,7,8-tetrahydro-1,8-naphthyridin-2-yl)ethyl)pyrrolidin-1-yl) butanoic acid]
- Diarrhoea, n (%) (1000 mcg nebulised, N=5): 0 n (%)
- Headache, n (%) (1000 mcg nebulised, N=5): 1 (20) n (%)
- Number of participants with any AE, n (%) (1000 mcg nebulised, N=5): 3 (60) n (%)
- Urinary tract infection, n (%) (1000 mcg nebulised, N=5): 1 (20) n (%)
- Intensity and treatment relation of AEs (single nebulised 1000 mcg doses): All AEs were mild in intensity and none were considered treatment related
- Tolerability in healthy participants [1]: well tolerated
